Measured values reported in US7815907B2, “Antibodies to insulin-like growth factor I receptor” (Amgen Fremont Inc., priority 2001, dated 2010).

Key:
[1] = molecular target: T1, extracellular domain of IGF-IR (Homo sapiens, UniProt P08069); experiment: BIAcore affinity measurement, Protocol 2; assay type: binding; conditions: BIAcore 3000; as Fagerstam et al.
T1 construct: Different concentrations of the extracellular domain of IGF-IR were injected on the sensorchip
Procedure: We performed affinity measures of purified antibodies by surface plasmon resonance using the BIAcore 3000 instrument, following the manufacturer's protocols.
BIAcore measurements were performed essentially as described by Fagerstam et al. “Detection of antigen-antibody interactions by surface plasmon resonance. Applications to epitope mapping.” J. Mol. Recog. 3: 208-214. (1990).

IGF-IR = IGF-IR (Homo sapiens, UniProt P08069); experiment: Species crossreactivity by immunoprecipitation/Western blot; assay type: binding; design: on cells from a variety of animals; endogenous in cells; conditions: immunoprecipitation, antibody 1 μg/ml
Procedure: To perform immunoprecipitation experiments, we plated cells in DMEM high glucose media supplemented with L-glutamine (0.29 mg/ml), 10% heat-inactivated FBS, and 500 μg/ml each of geneticin, penicillin and streptomycin to 50% confluence in T25 flasks. We then added 100 μl of an antibody of the invention in Hank's buffered saline solution (HBSS; Gibco BRL) at a concentration of 1 μg/ml. We incubated the plates for 30 minutes at 37° C. in an incubator and then stimulated the cells with IGF-I at 100 ng/ml for 10 minutes at room temperature. We lysed the cells in RIPA buffer (Harlow and Lane, supra) and immunoprecipitated IGF-IR with 2 μg of pan-specific SC-713 anti-IGF-IR antibody (Santa Cruz) plus protein A agarose beads for 1 hour at 4° C. We pelleted the beads and wash three times with PBS/T (PBS+0.1% Tween-20) and then boiled the beads in 40 μl Laemmli buffer containing 5% βME.
The samples prepared as described above were then analyzed by Western blot. We loaded 12 μl of each sample per lane on 4-10% gradient Novex™ gels run with 1×MES buffer (Novex™). Gels were run at 150V for 1 hour or at 200V for approximately 30 minutes. We then transferred the gel to a membrane in Novex™ transfer buffer with 10% methanol either overnight at 100 mA or for 1-1.5 hours at 250 mA. […]

Colo 205 tumors = experiment: Growth inhibition of colorectal cell tumors; assay type: in vivo, nude mice
Procedure: Tumors were induced in nude mice as described in Example IX except that Colo 205 cells (ATCC CCL 222) were used. Colo 205 cells are human colorectal adenocarcinoma cells. Mice with established subcutaneous tumors of approximately 250 mm^3 were treated with various amounts of 2.13.2 antibody (i.p.) or with 100 mg/kg […] (5-FU, i.v.), either as single agents or in combination, as described in Example IX. […] Mice with established Colo 205 tumors were treated on days 1, 8, 15 and 22 with 500 μg 2.13.2 (i.p.), 100 mg/kg 5-FU (i.v.) or a combination thereof.

A431 tumors = experiment: Growth inhibition of epidermoid carcinoma cell tumors; assay type: in vivo, nude mice
Procedure: Tumors were induced in nude mice essentially as described in Example IX except that A431 cells (ATCC CRL 1555) were used. A431 cells are human epidermoid carcinoma cells that overexpress EGFR. Mice with established subcutaneous tumors of approximately 250 mm^3 were treated on days 1, 8, 15, 22 and 29 with 500 μg 2.13.2 antibody (i.p.) or were treated once daily for 27 days with 10 mg/kg CP-358,774 given orally (p.o.), either as single agents or in combination, as described in Example IX. CP-358,774 is described in U.S. Pat. No. 5,747,498 and Moyer et al., Cancer Research 57: 4838-4848 (1997), herein incorporated by reference.

2.13.2: human IgG2κ monoclonal antibody specific for IGF-IR from hybridoma 2.13.2 (ATCC PTA-2788)
Kd [1]: 1.53 nM
binding to human IGF-IR (IGF-IR): able to bind
Colo 205 tumor growth (Colo 205 tumors; 500 μg i.p. on days 1, 8, 15 and 22): inhibits human colorectal cancer cell growth
effect on effectiveness of 5-FU (Colo 205 tumors; 500 μg i.p. on days 1, 8, 15 and 22 with 100 mg/kg 5-FU i.v.): enhances the effectiveness of 5-FU
effect on effectiveness of 5-FU (Colo 205 tumors; antibody given once with 100 mg/kg 5-FU i.v.): enhances the effectiveness of 5-FU
Colo 205 tumor growth (Colo 205 tumors; antibody i.p. given once, single agent): inhibits human colorectal cancer cell growth
effect on effectiveness of CP-358,774 (A431 tumors; 500 μg i.p. on days 1, 8, 15, 22 and 29 with 10 mg/kg CP-358,774 p.o. daily for 27 days): enhances the effectiveness of CP-358,774
A431 tumor growth (A431 tumors; multiple doses, alone or in combination with CP-358,774 (FIG. 16)): inhibit A431 tumor growth
